According to patent US6858624B2, “Aryl fused azapolycyclic compounds” (Pfizer, Inc., priority 2001, dated 2005):

Assays:
[1] = biotransformation in liver microsomes; assay type: in vitro ADME; details: bicarbonate buffer, CO2 atmosphere, UDPGA
Source text: A number of studies have been conducted on precursor compounds to those of formula I of the present invention. In particular, studies have been carried out on 5,8,14-triazatetracyclo[10.3.1.0^2,110.0^4,9]-hexadeca-2(11),3,5,7,9-pentaene: [drawing 12] Means of the synthesis of this compound may be found International Patent Publication No. WO 99/35131 and WO 01/62736.

[2] = in vivo metabolism study, human (circulating and excreted metabolites)
Source text: (§1) The compound 5,8,14-triazatetracyclo[10.3.1.0^2,110.0^4,9]-hexadeca-2(11),3,5,7,9-pentaene has also been studied in vivo (rat, monkey, mouse, and human). Metabolite structures are described in Scheme I below.
(§2) The N-carbamoyl glucuronide represents an unusual, albeit not unprecedented metabolite that arises via association of carbon dioxide with the secondary amine followed by glucuronidation. […] The only excreted metabolites in human were the hydroxyquinoxaline metabolite (2.9% of dose): [drawing 17] and N-carbamoyl glucuronide (3.6% of dose).

[3] = in vivo metabolism study, preclinical species
Source text: as §1, §2

c1cnc2cc3c(cc2n1)C1CNCC3C1 [5,8,14-triazatetracyclo[10.3.1.0^2,110.0^4,9]-hexadeca-2(11),3,5,7,9-pentaene]
biotransformation in liver microsomes [1]: underwent N-carbamoyl glucuronidation

O=C(O)C1OC(OC(=O)N2CC3CC(C2)c2cc4nccnc4cc23)C(O)C(O)C1O (stereo not drawn) [N-carbamoyl glucuronide]
metabolites in human circulation [2]: Metabolites in human circulation included
excreted metabolite in human ([2]; after 5,8,14-triazatetracyclo[10.3.1.0^2,110.0^4,9]-hexadeca-2(11),3,5,7,9-pentaene): 3.6 % of dose
metabolite present in rat and monkey [3]: present in rat and monkey

O=CN1CC2CC(C1)c1cc3nccnc3cc12 [N-formyl]
metabolites in human circulation [2]: Metabolites in human circulation included

Oc1cnc2cc3c(cc2n1)C1CNCC3C1 (stereo not drawn) [hydroxyquinoxaline metabolite]
excreted metabolite in human ([2]; in vivo): 2.9 % of dose
